What was measured:
Carbonic anhydrase 9 = Carbonic anhydrase 9 (Homo sapiens, UniProt Q16790)
Description: Inhibition of human CA9 by stopped-flow CO2 hydration assay

Carbonic anhydrase 1 = Carbonic anhydrase 1 (Homo sapiens, UniProt P00915)
Description: Inhibition of human CA1 by stopped-flow CO2 hydration assay

Carbonic anhydrase 2 = Carbonic anhydrase 2 (Homo sapiens, UniProt P00918)
Description: Inhibition of human CA2 by stopped-flow CO2 hydration assay

Carbonic anhydrase 3 = Carbonic anhydrase 3 (Homo sapiens, UniProt P07451)
Description: Inhibition of human CA3 by stopped-flow CO2 hydration assay

Carbonic anhydrase 4 = Carbonic anhydrase 4 (Homo sapiens, UniProt P22748)
Description: Inhibition of human CA4 by stopped-flow CO2 hydration assay

[1] = target: Carbonic anhydrase 5A, mitochondrial (Homo sapiens, UniProt P35218)
Description: Inhibition of human CA5A by stopped-flow CO2 hydration assay

[2] = target: Carbonic anhydrase 5B, mitochondrial (Homo sapiens, UniProt Q9Y2D0)
Carbonic anhydrase 5B, mitochondrial, sequence (Q9Y2D0 whole entry): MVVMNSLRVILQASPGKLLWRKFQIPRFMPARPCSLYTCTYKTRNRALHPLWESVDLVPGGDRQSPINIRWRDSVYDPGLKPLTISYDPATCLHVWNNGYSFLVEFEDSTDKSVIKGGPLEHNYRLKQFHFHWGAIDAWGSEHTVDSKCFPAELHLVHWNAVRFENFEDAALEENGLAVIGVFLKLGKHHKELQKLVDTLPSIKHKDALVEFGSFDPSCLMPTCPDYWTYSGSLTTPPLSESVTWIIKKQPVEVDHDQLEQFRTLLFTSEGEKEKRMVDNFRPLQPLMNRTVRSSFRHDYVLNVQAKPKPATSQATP
Description: Inhibition of human CA5B by stopped-flow CO2 hydration assay

Carbonic anhydrase 6 = Carbonic anhydrase 6 (Homo sapiens, UniProt P23280)
Carbonic anhydrase 6, sequence (P23280 whole entry): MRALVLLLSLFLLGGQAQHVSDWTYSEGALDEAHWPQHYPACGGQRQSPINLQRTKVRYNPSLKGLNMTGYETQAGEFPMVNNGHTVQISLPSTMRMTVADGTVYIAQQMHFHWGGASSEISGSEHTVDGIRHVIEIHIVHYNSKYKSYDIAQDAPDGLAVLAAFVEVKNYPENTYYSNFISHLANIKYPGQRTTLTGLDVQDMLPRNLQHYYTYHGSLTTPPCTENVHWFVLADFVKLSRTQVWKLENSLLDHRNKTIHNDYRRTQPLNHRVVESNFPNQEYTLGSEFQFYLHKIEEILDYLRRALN
Description: Inhibition of human CA6 by stopped-flow CO2 hydration assay

Carbonic anhydrase 7 = Carbonic anhydrase 7 (Homo sapiens, UniProt P43166)
Carbonic anhydrase 7, sequence (P43166 whole entry): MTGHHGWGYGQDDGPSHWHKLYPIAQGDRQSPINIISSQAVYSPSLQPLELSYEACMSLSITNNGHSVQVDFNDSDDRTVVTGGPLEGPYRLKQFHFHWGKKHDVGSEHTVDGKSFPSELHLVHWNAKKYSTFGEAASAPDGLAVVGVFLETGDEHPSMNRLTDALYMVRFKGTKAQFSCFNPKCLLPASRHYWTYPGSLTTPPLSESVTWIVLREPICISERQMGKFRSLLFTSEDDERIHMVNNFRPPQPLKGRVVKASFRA
Description: Inhibition of human CA7 by stopped-flow CO2 hydration assay

Carbonic anhydrase 12 = Carbonic anhydrase 12 (Homo sapiens, UniProt O43570)
Carbonic anhydrase 12, sequence (O43570 whole entry): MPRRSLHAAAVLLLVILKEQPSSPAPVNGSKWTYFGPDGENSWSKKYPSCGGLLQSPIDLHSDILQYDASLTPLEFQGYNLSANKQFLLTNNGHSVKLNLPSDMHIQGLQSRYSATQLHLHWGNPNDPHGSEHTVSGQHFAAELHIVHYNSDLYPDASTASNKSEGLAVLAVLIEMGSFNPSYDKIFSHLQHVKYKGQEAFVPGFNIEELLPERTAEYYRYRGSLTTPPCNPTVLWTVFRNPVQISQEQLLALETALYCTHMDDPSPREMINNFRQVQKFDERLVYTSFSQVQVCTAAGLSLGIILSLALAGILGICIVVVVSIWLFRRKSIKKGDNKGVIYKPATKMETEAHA
Description: Inhibition of human CA12 by stopped-flow CO2 hydration assay

Carbonic anhydrase 13 = Carbonic anhydrase 13 (Mus musculus, UniProt Q9D6N1)
Carbonic anhydrase 13, sequence (Q9D6N1 whole entry): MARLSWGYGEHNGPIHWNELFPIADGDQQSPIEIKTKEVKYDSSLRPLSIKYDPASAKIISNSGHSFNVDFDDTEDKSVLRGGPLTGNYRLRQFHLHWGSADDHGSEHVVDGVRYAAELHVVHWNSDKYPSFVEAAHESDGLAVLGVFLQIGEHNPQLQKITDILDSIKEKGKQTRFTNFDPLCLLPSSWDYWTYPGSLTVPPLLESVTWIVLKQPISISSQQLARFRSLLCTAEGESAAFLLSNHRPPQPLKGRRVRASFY
Description: Inhibition of mouse CA13 by stopped-flow CO2 hydration assay

Carbonic anhydrase 14 = Carbonic anhydrase 14 (Homo sapiens, UniProt Q9ULX7)
Carbonic anhydrase 14, sequence (Q9ULX7 whole entry): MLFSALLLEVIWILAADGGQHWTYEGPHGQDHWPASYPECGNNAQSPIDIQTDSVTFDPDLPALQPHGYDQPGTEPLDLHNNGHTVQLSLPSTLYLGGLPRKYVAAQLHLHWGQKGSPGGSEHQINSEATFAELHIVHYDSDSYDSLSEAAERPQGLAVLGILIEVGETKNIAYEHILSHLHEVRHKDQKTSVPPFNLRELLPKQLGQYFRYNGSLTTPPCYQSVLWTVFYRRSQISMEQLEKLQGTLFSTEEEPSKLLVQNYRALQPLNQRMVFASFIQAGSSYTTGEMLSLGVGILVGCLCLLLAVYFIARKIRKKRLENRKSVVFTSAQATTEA
Description: Inhibition of human CA14 by stopped-flow CO2 hydration assay

Carbonic anhydrase 1, sequence (P00915 whole entry): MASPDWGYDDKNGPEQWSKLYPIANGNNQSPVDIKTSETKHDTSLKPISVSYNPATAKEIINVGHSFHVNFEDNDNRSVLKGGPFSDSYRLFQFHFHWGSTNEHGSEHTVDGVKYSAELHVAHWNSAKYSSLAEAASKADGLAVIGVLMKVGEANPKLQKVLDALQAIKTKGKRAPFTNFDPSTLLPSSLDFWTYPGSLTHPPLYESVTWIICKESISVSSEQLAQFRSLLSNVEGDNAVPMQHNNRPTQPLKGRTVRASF
Carbonic anhydrase 5A, mitochondrial, sequence (P35218 whole entry): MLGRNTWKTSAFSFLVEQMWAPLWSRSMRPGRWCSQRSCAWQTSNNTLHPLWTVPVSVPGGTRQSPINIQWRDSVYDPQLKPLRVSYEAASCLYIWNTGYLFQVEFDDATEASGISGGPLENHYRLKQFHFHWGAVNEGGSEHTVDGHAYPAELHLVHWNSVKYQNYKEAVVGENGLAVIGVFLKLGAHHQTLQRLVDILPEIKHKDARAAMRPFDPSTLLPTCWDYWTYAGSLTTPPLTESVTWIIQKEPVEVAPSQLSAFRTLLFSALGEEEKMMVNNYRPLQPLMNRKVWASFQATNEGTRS
Carbonic anhydrase 3, sequence (P07451 whole entry): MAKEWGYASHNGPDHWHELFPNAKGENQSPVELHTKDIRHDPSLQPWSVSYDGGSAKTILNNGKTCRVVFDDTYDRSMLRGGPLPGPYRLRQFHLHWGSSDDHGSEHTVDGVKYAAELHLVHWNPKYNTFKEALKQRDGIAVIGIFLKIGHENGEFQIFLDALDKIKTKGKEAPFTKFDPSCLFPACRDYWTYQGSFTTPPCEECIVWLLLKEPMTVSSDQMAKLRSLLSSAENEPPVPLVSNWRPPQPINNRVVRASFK
Carbonic anhydrase 4, sequence (P22748 whole entry): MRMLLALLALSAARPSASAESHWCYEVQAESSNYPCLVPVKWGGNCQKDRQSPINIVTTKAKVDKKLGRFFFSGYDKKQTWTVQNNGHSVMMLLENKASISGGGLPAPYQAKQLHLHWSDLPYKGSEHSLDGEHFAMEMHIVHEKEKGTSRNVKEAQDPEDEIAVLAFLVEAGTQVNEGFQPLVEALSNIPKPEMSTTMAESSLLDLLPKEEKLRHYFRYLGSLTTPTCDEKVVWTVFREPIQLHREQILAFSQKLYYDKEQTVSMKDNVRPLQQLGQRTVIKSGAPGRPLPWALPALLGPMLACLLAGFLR

SMILES	Ki (Carbonic anhydrase 9) [µM]	Ki (Carbonic anhydrase 1) [µM]	Ki (Carbonic anhydrase 2) [µM]	Ki (Carbonic anhydrase 3) [µM]	Ki (Carbonic anhydrase 4) [µM]	Ki [1] [µM]	Ki [2] [µM]	Ki (Carbonic anhydrase 6) [µM]	Ki (Carbonic anhydrase 7) [µM]	Ki (Carbonic anhydrase 12) [µM]	Ki (Carbonic anhydrase 13) [µM]	Ki (Carbonic anhydrase 14) [µM]
O=C(O)c1cc(O)c(O)c(O)c1 [GALLIC ACID]	6.99	3.2	2.25	7.49	9.8	4.08	9.97	6.13	6.07	7.78	9.86	7.03
O=c1c(O)c(-c2ccc(O)c(O)c2)oc2cc(O)cc(O)c12 [QUERCETIN]	7	2.68	2.54	8.1	7.89	6.81	11.9	6.17	4.84	9.39	9.03	5.41
COc1cc(C(=O)O)cc(OC)c1O [SYRINGIC ACID]	8.2	4.15	3.19	8.58	10.6	6.34	35.4	7.55	7.81	9.01	11	9.14

Further lines, results first:

Ki (Carbonic anhydrase 9) [µM]	Ki (Carbonic anhydrase 1) [µM]	Ki (Carbonic anhydrase 2) [µM]	Ki (Carbonic anhydrase 3) [µM]	Ki (Carbonic anhydrase 4) [µM]	Ki [1] [µM]	Ki [2] [µM]	Ki (Carbonic anhydrase 6) [µM]	Ki (Carbonic anhydrase 7) [µM]	Ki (Carbonic anhydrase 12) [µM]	Ki (Carbonic anhydrase 13) [µM]	Ki (Carbonic anhydrase 14) [µM]	SMILES
5.33	1.07	0.98	7.57	9.6	5.96	7.76	6.72	5.23	8.01	10.1	6.68	O=C(O)/C=C/c1ccc(O)cc1 [COUMARIC ACID]
9.87	2.89	2.4	11.1	10.8	7.04	10.5	8.45	7.41	9.78	12.2	9.43	COc1cc(/C=C/C(=O)O)ccc1O [FERULATE]
9.37	2.32		10.5	9.08	7.59	12.7	7.06	6.32	10.1	10.3	8.91	O=c1oc2c(O)c(O)cc3c(=O)oc4c(O)c(O)cc1c4c23 [ELLAGIC ACID]
3.73	0.92		6.61	7.78	3.67		5.7	4.08	6.27	7.79	6.16	O=C(O)c1ccc(O)cc1 [PARABEN]
